Five compounds from patent US10118903B2, “Aminotriazole-based KDM1A inhibitors as epigenetic modulators” (MUSC FOUNDATION FOR RESEARCH DEVELOPMENT, priority 2014, dated 2018) can be followed below.

Entries after “also recorded” stand apart in the source; their conditions may differ.

Series [1] in a line: Solubility noted in the LSD1 screen. Type of series: physicochemical. The note with it: LSD1 screen at 10 μM.
Series [2] has as its system H3K4me2 levels in Calu 6 human anaplastic lung tumor cell line. As to the kind of experiment: H3K4 methylation in tumor cells by Western blot. Type of series: cell-based. The note with it: Calu 6 cells. On the procedure: To verify that C1 and C15 have epigenetic effects in tumor cells, changes in H3K4 methylation in the Calu 6 human anaplastic lung tumor cell line were monitored, as shown in FIG. 4.
Following treatment, cells were washed twice in sterile filtered cold 1×PBS. Cells were then lysed in 200 μL of lysis buffer (20 mM Tris, 150 mM NaCl, 1 mM EDTA, 1 mM EGTA, 1 mM β-glycerol, 2.5 mM sodium pyrophosphate, and 1% Triton X-100) Protease and phosphatase inhibitors were added to these buffers (1:100 dilutions of phosphatase inhibitor cocktail I and II and protease inhibitor cocktail; Sigma). The cells were then incubated on ice for 15 min, and insoluble material was pelleted by centrifugation at 4° C.
Protein concentrations were determined by Pierce BCA protein assay kit (Thermo Sci, Product #23225). Cell lysates were subjected to SDS-PAGE, and Western blot analysis was performed with the appropriate antibodies. Primary antibodies against H3K4me2, H3K4me1, and LSD1 were from Cell Signaling; Histone H3 primary antibody was from Millipore. Proteins were visualized by enhanced chemiluminescence (ECL).

The next series relates to mouse heart. Kind of series: Langendorff isolated heart model, ischemia/reperfusion. The note with it: versus vehicle; for left ventricular end diastolic pressure: 1 hour pre-treatment with 1.0 μM; for left ventricular developed pressure: pre-treatment before ischemia, after reperfusion. From the text: (§1) In the Langendorff preparation, the heart is removed with preservation of a portion of the afferent and efferent blood vessels; it is then perfused in a reverse fashion via the aorta, usually with a nutrient rich, oxygenated solution (e.g. Krebs-Henseleit solution or Tyrode's solution). The backwards pressure causes the aortic valve to shut, forcing the solution into the coronary vessels, which normally supply the heart tissue with blood. This feeds nutrients and oxygen to the cardiac muscle, allowing it to continue beating for several hours after its removal from the animal. This is a useful preparation because it allows the addition of drugs (via the perfusate) and observation of their effect on the heart without the complications involved with in vivo experimentation, such as neuronal and hormonal effects from living animal (Broadley, K. J., 1970). A pressure transducer is inserted to measure a number of cardiac performance parameters including left ventricular developed pressure, left ventricular end diastolic pressure, heart rate, etc. Following the Langendorff procedure, the myocardium is cut into cross sections, and infarcted tissue is identified by the inability to take up stain; thus infarcted areas appear white, while healthy areas appear red.
The compounds described herein may be used to protect the myocardium from injury following an ischemic event. In FIG. 6, a mouse heart was subjected to ischemia by ligation of the afferent vessel in a Langendorff preparation, as described above. Prior to the induction of ischemia, hearts were either pre-treated with vehicle, verlindamycin or C1. […] In FIG. 8, the results of an experiment to measure infarcted tissue in a myocardial cross-section are shown. Results are expressed as a percentage of the area of infarct with respect to total surface area. […] The HDAC1/CoREST/LSD1 complex was pulled down with an LSD1 antibody and a Western blot for CoREST was performed.

In another series the test system is murine myocardium. Kind of series: Infarct area in myocardial cross-section after induced myocardial ischemia. The note with it: 10 mg/kg; versus vehicle. Type of series: in vivo, mouse.
Source text: as §1, with “Following the Langendorff procedure, the myocardium is cut into cross sections, and infarcted tissue is identified by the inability to take up stain; thus infarcted areas appear white, while healthy areas appear red.” left out
The compounds described herein may be used to protect the myocardium from injury following an ischemic event. […] Results are expressed as a percentage of the area of infarct with respect to total surface area. […]

Series [3] relates to HDAC1/CoREST/LSD1 complex. As to the kind of experiment: Pull-down of HDAC1/CoREST/LSD1 complex with HDAC1 antibody, Western blot for CoREST. Type of series: cell-based. The note with it: primary feline cardiomyocytes, 3 h, 5 μM. An excerpt: Co-immunoprecipitation (pull down) of intact protein complexes works by selecting an antibody that targets a known protein that is believed to be a member of a larger complex of proteins. By targeting this known member with an antibody it may become possible to pull the entire protein complex out of solution and thereby identify unknown members of the complex. This works when the proteins involved in the complex bind to each other tightly, making it possible to pull multiple members of the complex out of solution by latching onto one member with an antibody. This concept of pulling protein complexes out of solution is sometimes referred to as a “pull-down”. Co-immunoprecipitation is a powerful technique that is used regularly by molecular biologists to analyze protein-protein interactions. The co-repressor HDAC:CoREST:LSD1 complex was initially pulled down with an antibody for HDAC1 and a Western blot for CoREST was performed.

A further series concerns LSD1:CoREST complex. Kind of series: Pull-down of HDAC1/CoREST/LSD1 complex with LSD1 antibody, Western blot for CoREST. It counts as cell-based. The note with it: primary feline cardiomyocytes, 3 h, 1 μM; LSD1 antibody pull-down. As to the method: Co-immunoprecipitation analysis for LSD1:CoREST complex following treatment from primary rat cardiomyocytes with 5 μM and 1 μM C1 was performed as described above. Lysates pulled down with LSD1 antibody and western blotted for CoREST (n=2).

Series [4] addresses human recombinant spermine oxidase (Homo sapiens, UniProt Q9NWM0). As to the kind of experiment: Inhibition of spermine oxidase. Type of series: biochemical. On the procedure:
The assay procedure is very similar to the assay used for LSD1, except that the reaction is conducted by human recombinant spermine oxidase. the assay for C1 and related analogues was conducted as previously described (Goodwin et al., 2011).

The target of a further series is T1, human recombinant LSD1 (Homo sapiens, UniProt O60341).
T1 construct: purchased Cayman Chemical Item #700120
As to the kind of experiment: LSD1 inhibitor screening assay (Cayman Chemical kit, fluorometric). It counts as biochemical. The note with it: 10 μM compound; Chembridge analogues table. As to the method: LSD1 Inhibitor Screening Assay:
(§2) In short, 10 μM of compound was combined with the fluorometic substrate 10-acetyl-3,7-dihydroxyphenoxazine, horseradish peroxidase, human recombinant LSD1, and 100 μM dimethylated lysine at residue 4 [ARTK(diMe)[…]] (Seq. ID No: 1) for 30 mins at 37° C. Plates were read using an excitation wavelength of 535 nm and an emission wavelength of 590 nm with a SpectraMax M5 Microplate reader.

Series [5] has as its target recombinant human LSD1/CoREST (Homo sapiens, UniProt O60341). Kind of series: IC50 determination by dose-response curve against recombinant LSD1/CoREST. It counts as biochemical. As to the method: Using a dose-response curve, the IC50 of C1 and C15 were calculated.
as §2

human recombinant spermine oxidase, sequence (Q9NWM0 whole entry): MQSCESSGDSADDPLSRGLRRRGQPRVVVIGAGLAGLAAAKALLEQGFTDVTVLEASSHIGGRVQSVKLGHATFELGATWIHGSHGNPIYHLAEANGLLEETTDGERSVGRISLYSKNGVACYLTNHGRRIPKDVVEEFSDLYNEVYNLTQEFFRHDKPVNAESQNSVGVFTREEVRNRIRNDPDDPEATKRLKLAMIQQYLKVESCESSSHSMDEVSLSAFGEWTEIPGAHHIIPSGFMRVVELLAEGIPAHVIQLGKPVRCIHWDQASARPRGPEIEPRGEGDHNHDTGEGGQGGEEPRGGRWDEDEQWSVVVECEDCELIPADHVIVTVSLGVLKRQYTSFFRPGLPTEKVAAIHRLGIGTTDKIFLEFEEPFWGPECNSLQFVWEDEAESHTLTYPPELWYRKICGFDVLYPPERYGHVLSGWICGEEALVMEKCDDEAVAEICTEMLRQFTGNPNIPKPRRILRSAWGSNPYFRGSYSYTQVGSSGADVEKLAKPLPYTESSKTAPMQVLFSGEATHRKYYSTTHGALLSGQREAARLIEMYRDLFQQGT

`CSc1ccc(Oc2cccc(Cl)c2CNc2nnc(N)[nH]2)cc1` [Compound 5l, N^3-(2-chloro-6-(4-((methyl)thio)phenoxy)benzyl)-4H-1,2,4-triazole-3,5-diamine]: the “solubility (reason why % inhibition was not determined)” value in series [1] was “Not Determined (Insolube)”.
Consider `Nc1nnc(NCc2c(Cl)cccc2Oc2ccccc2)[nH]1` [Compound C1, N^3-(2-chloro-6-phenoxybenzyl)-4H-1,2,4-triazole-3,5-diamine], for which, in [2] (24 or 48 hours), the “effect on H3K4 methylation” value is given as “did not appear to have a significant effect”. For the same compound, in the series on mouse heart, the “left ventricular end diastolic pressure” value is recorded as “reduced to near-normal levels” and the “left ventricular developed pressure” value is recorded as “restored to nearly normal levels”. Further, in the series with murine myocardium, the “infarct area as a percentage of the total left ventricular area” value is given as “most effective in limiting the spread of infarct; also recorded: significantly more effective than treatment with vehicle”. The “association of HDAC1 and CoREST” value in series [3] is “disrupted the association of HDAC1 and CoREST”. In addition, the “association between LSD1 and CoREST” value in the series with LSD1:CoREST complex is “disrupted the association between LSD1 and CoREST”. For the same compound, the “mode of inhibition of spermine oxidase” value in [4] is “competitive inhibitor”. The “inhibition of spermine oxidase compared with verlindamycin” value in series [4] (assayed between 0.1 and 1.0 μM) is recorded as “improved inhibition of spermine oxidase over verlindamycin”. For the same compound, in [4] (assayed between 0.1 and 1.0 μM, read-out: IC50 against spermine oxidase (SMOX)), the IC50 stood at 40 nM.
As for `Nc1nnc(NCc2c(Cl)cccc2Oc2ccc(Br)cc2Br)[nH]1` [Compound 5j], the “solubility (reason why % inhibition was not determined)” value in series [1] is “Not Determined (Insolube)”.
In the case of “Verlindamycin tetrahydrochloride [Compound 2d, reference compound]”, in the series with mouse heart, the “left ventricular end diastolic pressure” value is “reduced to near-normal levels” and the “left ventricular developed pressure” value was “restored to nearly normal levels”. Besides, the “infarct area as a percentage of the total left ventricular area” value in the series with murine myocardium is listed as “significantly more effective than treatment with vehicle”. For the same compound, the “association between LSD1 and CoREST” value in the series with LSD1:CoREST complex is “Only compound C1 disrupted the association”.
On to `COc1ccccc1CNc1n[nH]c(NCc2ccccc2OC)n1` [Compound C15, N^3,N^5-bis(2-methoxybenzyl)-1H-1,2,4-triazole-3,5-diamine], for which the inhibition at 10 µM at human recombinant LSD1 turned out to be 74.9 ± 1.9%. In [5], the IC50 is 2200 nM. The H3K4me2 levels entry in series [2] (72 hours) is reported as “significant, dose-dependent increase”. Further, the “association of HDAC1 and CoREST” value in series [3] was “disrupted the association of HDAC1 and CoREST”. In [4] (assayed between 0.1 and 1.0 μM), the “inhibition of spermine oxidase compared with verlindamycin” value was “improved inhibition of spermine oxidase over verlindamycin”.
